What was measured:
[1] = biological target: T1, Cbl-b (aa36-427) (Homo sapiens, UniProt Q13191); assay: Biotin-labelled Cbl-b biochemical assay (CBLB/E2-Ub binding, HTRF); conditions: 5.0 nM biotin labelled Cbl-b
T1 construct: Cbl-b (aa36-427, in-house); made in house
Protocol: (§1) The assay in the absence of a Cbl-b/Cbl inhibitor, where phosphorylation of Cbl-b/Cbl by the Src kinase allows UbcH5B-Ub to bind to Cbl-b/Cbl and brings the Bodipy-Fluorescein tagged ubiquitin in proximity to the streptavidin-terbium bound to the N-terminal biotinylated Avi-tagged Cbl-b/Cbl. […] The lack of a FRET signal indicates Cbl-b/Cbl is inhibited by the Cbl-b/Cbl inhibitor.
(§2) 5.0 nM recombinant biotin labelled Cbl-b was pre-incubated with a serial dilution of compounds (maximum concentration is 100 μM, 3-fold serially diluted, 16 points) at room temperature for 1.5 hour in an assay buffer containing 50 mM HEPES, pH 7.0, 100 mM NaCl, 0.01% BSA, 1 mM DTT, 0.01% Triton X-100. Then 25 nM in-house UbcH5B-Ub conjugate protein, 60 nM SRC (aa251-536, in-house), 0.5 mM ATP, 5 mM MgCl2 and Streptavidin-Tb cryptate (Cat: 610SATLB, Cisbio Bioassays) were added to plate and further incubated at room temperature for 2 hours.

[2] = biological target: T2, Cbl (aa49-434) (Homo sapiens, UniProt P22681); assay: Biotin-labelled Cbl biochemical assay (CBL/E2-Ub binding, HTRF); conditions: 5.0 nM biotin labelled Cbl
T2 construct: Cbl (aa49-434, in-house); made in house
T2 sequence (P22681 49-434): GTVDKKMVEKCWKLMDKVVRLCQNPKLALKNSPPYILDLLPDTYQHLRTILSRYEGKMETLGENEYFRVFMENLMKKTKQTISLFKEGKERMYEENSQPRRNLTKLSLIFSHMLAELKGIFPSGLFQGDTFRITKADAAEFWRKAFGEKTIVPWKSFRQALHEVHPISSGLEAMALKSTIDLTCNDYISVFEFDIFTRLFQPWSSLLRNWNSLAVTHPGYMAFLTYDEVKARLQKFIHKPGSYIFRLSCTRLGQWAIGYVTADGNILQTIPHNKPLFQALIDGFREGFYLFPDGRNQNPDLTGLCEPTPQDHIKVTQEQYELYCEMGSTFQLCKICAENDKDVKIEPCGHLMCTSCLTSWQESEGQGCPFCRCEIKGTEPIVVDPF
Protocol: as §1
as §2, with “labelled Cbl” for “labelled Cbl-b”, “100 µM,” for “100 μM,”, “Then 10” for “Then 25”

[3] = biological target: T1, Cbl-b (aa36-427); assay: Co-expressed Cbl-b with BirA biochemical assay (CBLB/E2-Ub binding, HTRF); conditions: 0.6 nM Cbl-b co-expressed with BirA, HTRF; read-out: co-express CBLB/E2-Ub-binding assay IC50
Source text: as §1

[4] = biological target: T2, Cbl (aa49-434); assay: Co-expressed Cbl with BirA biochemical assay (CBL/E2-Ub binding, HTRF); conditions: 0.6 nM Cbl co-expressed with BirA, read-out: co-express CBL/E2-Ub-binding assay IC50
Source text: as §1

T1 sequence (Q13191 36-427): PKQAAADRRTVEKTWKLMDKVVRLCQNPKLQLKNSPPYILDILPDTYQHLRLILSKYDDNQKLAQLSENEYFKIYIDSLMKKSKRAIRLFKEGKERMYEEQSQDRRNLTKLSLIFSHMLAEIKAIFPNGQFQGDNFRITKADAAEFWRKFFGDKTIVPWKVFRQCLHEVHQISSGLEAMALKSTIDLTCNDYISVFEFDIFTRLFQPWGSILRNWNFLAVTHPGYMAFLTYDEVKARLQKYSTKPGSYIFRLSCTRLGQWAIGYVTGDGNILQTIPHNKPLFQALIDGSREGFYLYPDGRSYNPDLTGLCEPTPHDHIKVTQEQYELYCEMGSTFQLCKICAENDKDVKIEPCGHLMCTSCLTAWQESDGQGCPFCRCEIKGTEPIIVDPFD

SMILES | IC50 [1] | IC50 [2] | IC50 [3] | IC50 [4]
C[C@@H]1CN(Cc2cc(C(=O)Nc3cccc([C@]4(c5nncn5C)C[C@@H](CC#N)C4)c3)c3nccn3c2)CCO1 [Compound A5, N-(3-((1s,3S)-3-(cyanomethyl)-1-(4-methyl-4H-1,2,4-triazol-3-yl)cyclobutyl)phenyl)-6-(((R)-2-methylmorpholino)methyl)imidazo[1,2-a]pyridine-8-carboxamide] | 138 nM | 914 nM |  | 
CC1CC(c2cccc(NC(=O)c3cc(CN4CCC[C@H](C)C4)c4c(n3)CCC4)c2)(c2nncn2C)C1 (stereo partly drawn) [Compound C1, (S)—N-(3-(3-methyl-1-(4-methyl-4H-1,2,4-triazol-3-yl)cyclobutyl)phenyl)-4-((3-methylpiperidin-1-yl)methyl)-6,7-dihydro-5H-cyclopenta[b]pyridine-2-carboxamide] | 11 nM | 60 nM |  | 
C[C@H]1CCCN(Cc2cc(C(=O)Nc3cccc([C@]4(Cc5nncn5C)C[C@@H](C#N)C4)c3)c3nccn3c2)C1 [Compound A4, N-(3-((1r,3S)-3-cyano-1-((4-methyl-4H-1,2,4-triazol-3-yl)methyl)cyclobutyl)phenyl)-6-(((S)-3-methylpiperidin-1-yl)methyl)imidazo[1,2-a]pyridine-8-carboxamide] | 3.3 nM | 28.7 nM |  | 
C[C@H]1CCCN(Cc2cc(C(=O)Nc3cccc([C@]4(c5nncn5C)C[C@@H](C)C4)c3)c3nccn3c2)C1 [Compound A1, N-(3-((1s,3R)-3-methyl-1-(4-methyl-4H-1,2,4-triazol-3-yl)cyclobutyl)phenyl)-6-(((S)-3-methylpiperidin-1-yl)methyl)imidazo[1,2-a]pyridine-8-carboxamide] | 5.36 nM | 31.8 nM |  | 
C[C@H]1CCCN(Cc2cc(C(=O)Nc3cccc([C@]4(c5nncn5C)C[C@@H](CC#N)C4)c3)c3nccn3c2)C1 [Compound A3, N-(3-((1s,3R)-3-(cyanomethyl)-1-(4-methyl-4H-1,2,4-triazol-3-yl)cyclobutyl)phenyl)-6-(((S)-3-methylpiperidin-1-yl)methyl)imidazo[1,2-a]pyridine-8-carboxamide] | 5.8 nM | 60.1 nM | 7.1 nM | 47 nM
C[C@H]1CCCN(Cc2cc(C(=O)Nc3cccc([C@]4(c5nncn5C)C[C@@H](C)C4)c3)nc3c2CC[C@@H]3C)C1 (single isomer, unassigned) [Compound C4, (S)-7-methyl-N-(3-((1s,3R)-3-methyl-1-(4-methyl-4H-1,2,4-triazol-3-yl)cyclobutyl)phenyl)-4-(((S)-3-methylpiperidin-1-yl)methyl)-6,7-dihydro-5H-cyclopenta[b]pyridine-2-carboxamide or (R)-7-methyl-N-(3-((1s,3S)-3-methyl-1-(4-methyl-4H-1,2,4-triazol-3-yl)cyclobutyl)phenyl)-4-(((S)-3-methylpiperidin-1-yl)methyl)-6,7-dihydro-5H-cyclopenta[b]pyridine-2-carboxamide] | 16.2 nM | 76 nM |  | 
CC1CCc2c(CN3CCC[C@H](C)C3)cc(C(=O)Nc3cccc([C@]4(c5nncn5C)C[C@@H](C)C4)c3)nc21 (stereo partly drawn) [Compound C2, 7-methyl-N-(3-((1s,3R)-3-methyl-1-(4-methyl-4H-1,2,4-triazol-3-yl)cyclobutyl)phenyl)-4-(((S)-3-methylpiperidin-1-yl)methyl)-6,7-dihydro-5H-cyclopenta[b]pyridine-2-carboxamide] | 11.9 nM | 28.8 nM |  | 
C[C@H]1CCCN(Cc2cc(C(=O)Nc3cccc([C@]4(c5nncn5C)C[C@@H](C)C4)c3)nc3c2CC[C@@H]3C)C1 (single isomer, unassigned) [Compound C3, (S)-7-methyl-N-(3-((1s,3R)-3-methyl-1-(4-methyl-4H-1,2,4-triazol-3-yl)cyclobutyl)phenyl)-4-(((S)-3-methylpiperidin-1-yl)methyl)-6,7-dihydro-5H-cyclopenta[b]pyridine-2-carboxamide or (R)-7-methyl-N-(3-((1s,3S)-3-methyl-1-(4-methyl-4H-1,2,4-triazol-3-yl)cyclobutyl)phenyl)-4-(((S)-3-methylpiperidin-1-yl)methyl)-6,7-dihydro-5H-cyclopenta[b]pyridine-2-carboxamide] | 4.8 nM | 21.7 nM |  | 
C[C@H]1CCCN(Cc2cc(C(=O)Nc3cccc([C@]4(c5nncn5C)C[C@H](C)C4)c3)c3nccn3c2)C1 [Compound A2, N-(3-((1r,3S)-3-methyl-1-(4-methyl-4H-1,2,4-triazol-3-yl)cyclobutyl)phenyl)-6-(((S)-3-methylpiperidin-1-yl)methyl)imidazo[1,2-a]pyridine-8-carboxamide] | 3.26 nM | 23 nM |  | 

Reference: patent publication US20250163047A1, “HETEROCYCLIC COMPOUNDS, COMPOSITIONS THEREOF, AND METHODS OF TREATMENT THEREWITH” (BeiGene, Ltd., priority 2022, published 2025)
